Source: patent US12146004B2, “Polymyxin compounds and uses thereof” (priority 2014, dated 2024)
Values after ≈ are worked out from the molar mass of the structure shown. Where two headings read alike, the source gives them in different places.

Experiments:
Format in all cases: cell-based
[1] = test system: Acinetobacter baumannii
Protocol: (§1) To evaluate the potency and spectrum of the compounds, susceptibility testing was performed against up to nine strains of each of the Gram negative pathogens, Escherichia coli, Pseudomonas aeruginosa, Klebsiella pneumoniae and Acinetobacter baumannii.
(§2) The values in Table 2 are MIC (μg/mL) against strains of E. coli, K. pneumoniae, P. aeruginosa and A. baumanii, including strains which show elevated MICs to Polymyxin.
(§3) The values in Table 2A are MIC (μg/mL).
(§4) The in vitro activity of compounds 26 and C7 (FADDI-02) against resistant bacterial strains was compared. The resistant strains included including Escherichia coli, Pseudomonas aeruginosa, Klebsiella pneumoniae and Acinetobacter baumannii strains. The data is provided in Table 2C, where the strains are identified. The values in Table 2 are MIC (μg/mL).

[2] = test system: Escherichia coli
Protocol: as §1, §2, §3, §4

[3] = test system: Pseudomonas aeruginosa
Protocol: as §1, §2, §3, §4

[4] = test system: Klebsiella pneumoniae
Protocol: as §1, §2, §3, §4

Compound | MIC A. baumanii ATCC BAA-747 [1] [µg/mL] | MIC A. baumanii NCTC 13424 [1] [µg/mL] | MIC E. coli 058 [2] [µg/mL] | MIC E. coli ATCC 25922 [2] [µg/mL] | MIC P. aeruginosa CCUG 59347 [3] [µg/mL] | MIC K. pneumoniae ATCC 13882 [4] [µg/mL] | MIC A. baumanii ATCC BAA-747 ([1]; strain ATCC BAA-747) [µg/mL] | MIC A. baumanii NCTC 13424 ([1]; strain NCTC 13424) [µg/mL] | MIC E. coli 058 ([2]; strain 058) [µg/mL] | MIC E. coli ATCC 25922 ([2]; strain ATCC 25922) [µg/mL] | MIC P. aeruginosa ATCC 27853 ([3]; strain ATCC 27853) [µg/mL] | MIC P. aeruginosa CCUG 59347 ([3]; strain CCUG 59347) [µg/mL] | MIC K. pneumoniae 065 ([4]; strain 065) [µg/mL] | MIC K. pneumoniae ATCC 13882 ([4]; strain ATCC 13882) [µg/mL] | MIC A. baumanii 053 ([1]; strain 053) [µg/mL] | MIC A. baumanii 056 ([1]; strain 056) [µg/mL] | MIC E. coli 061 ([2]; strain 061) [µg/mL] | MIC P. aeruginosa 070 ([3]; strain 070) [µg/mL] | MIC K. pneumoniae 063 ([4]; strain 063) [µg/mL] | other results
CC(C)C[C@@H]1NC(=O)[C@@H](CC2CCCCC2)NC(=O)[C@H](CCN)NC(=O)[C@@H](NC(=O)[C@H](CN)NC(=O)[C@@H](NC(=O)CC(CN)c2ccc(Cl)cc2)C(C)O)CCNC(=O)[C@H]([C@@H](C)O)NC(=O)[C@H](CCN)NC(=O)[C@H](CCN)NC1=O (single isomer, unassigned; isomer 1) [Example 50, 4-amino-3-(4-chlorophenyl) butanoyl L-Thr-L-Dap-polymyxin [D-cyclohexylalanine]-6 heptapeptide. Isomer 1] | 0.125 (≈ 0.109 µM) | 0.25 (≈ 0.217 µM) | 2 (≈ 1.74 µM) | 0.5 (≈ 0.434 µM) | 0.5 (≈ 0.434 µM) | 0.25 (≈ 0.217 µM) | – | – | – | – | – | – | – | – | – | – | – | – | – | MIC A. baumanii 053 [1]: 32 µg/mL (≈ 27.8 µM); MIC A. baumanii 056 [1]: 16 µg/mL (≈ 13.9 µM); MIC E. coli 061 [2]: 16 µg/mL (≈ 13.9 µM); MIC P. aeruginosa 068 [3]: 1 µg/mL (≈ 0.869 µM); MIC P. aeruginosa 070 [3]: 2 µg/mL (≈ 1.74 µM); MIC P. aeruginosa ATCC 27853 [3]: 0.25 µg/mL (≈ 0.217 µM); MIC K. pneumoniae 065 [4]: 1 µg/mL (≈ 0.869 µM)
CC(C)C[C@@H]1NC(=O)[C@@H](CC2CCCCC2)NC(=O)[C@H](CCN)NC(=O)[C@@H](NC(=O)[C@H](CCN)NC(=O)[C@@H](NC(=O)CC(CN)c2ccccc2)[C@@H](C)O)CCNC(=O)[C@H]([C@@H](C)O)NC(=O)[C@H](CCN)NC(=O)[C@H](CCN)NC1=O (single isomer, unassigned; isomer 1) [Example 56, 4-amino-3-phenylbutanoyl polymyxin [D-cyclohexylalanine]-6 nonapeptide isomer 1] | – | – | – | – | – | – | 0.125 (≈ 0.111 µM) | 0.125 (≈ 0.111 µM) | 16 (≈ 14.2 µM) | 0.25 (≈ 0.221 µM) | 0.25 (≈ 0.221 µM) | 0.5 (≈ 0.442 µM) | 16 (≈ 14.2 µM) | 0.25 (≈ 0.221 µM) | – | – | – | – | – | –
CC(C)C[C@@H]1NC(=O)[C@@H](CC2CCCCC2)NC(=O)[C@H](CCN)NC(=O)[C@@H](NC(=O)[C@H](CN)NC(=O)[C@@H](NC(=O)CC(CN)Cc2ccccc2)[C@@H](C)O)CCNC(=O)[C@H]([C@@H](C)O)NC(=O)[C@H](CCN)NC(=O)[C@H](CCN)NC1=O (single isomer, unassigned; isomer 1) [Example 58, 4-amino-3-benzylbutanoyl L-Thr-L-Dap-polymyxin [D-cyclohexylalanine]-6 heptapeptide. Isomer 1] | – | – | – | – | – | – | 0.03 (≈ 0.0265 µM) | 0.125 (≈ 0.111 µM) | 4 (≈ 3.54 µM) | 0.25 (≈ 0.221 µM) | 0.25 (≈ 0.221 µM) | 0.25 (≈ 0.221 µM) | 4 (≈ 3.54 µM) | 0.25 (≈ 0.221 µM) | 64 (≈ 56.6 µM) | 64 (≈ 56.6 µM) | 16 (≈ 14.2 µM) | 8 (≈ 7.08 µM) | 64 (≈ 56.6 µM) | MIC E. coli NCTC 9001 ([2]; strain NCTC 9001): 0.125 µg/mL (≈ 0.111 µM); MIC P. aeruginosa 068 ([3]; strain 068): 2 µg/mL (≈ 1.77 µM)
CC(C)C[C@@H]1NC(=O)[C@@H](CC2CCCCC2)NC(=O)[C@H](CCN)NC(=O)[C@@H](NC(=O)[C@H](CN)NC(=O)[C@@H](NC(=O)CCC(N)c2ccccc2)[C@@H](C)O)CCNC(=O)[C@H]([C@@H](C)O)NC(=O)[C@H](CCN)NC(=O)[C@H](CCN)NC1=O (single isomer, unassigned; isomer 1) [Example 60, 4-amino-4-phenylbutanoyl L-Thr-L-Dap-polymyxin [D-cyclohexylalanine]-6 heptapeptide. Isomer 1] | 0.5 (≈ 0.448 µM) | 1 (≈ 0.896 µM) | 16 (≈ 14.3 µM) | 0.5 (≈ 0.448 µM) | 1 (≈ 0.896 µM) | 0.5 (≈ 0.448 µM) | – | – | – | – | – | – | – | – | – | – | – | – | – | –
CC(C)C[C@@H]1NC(=O)[C@@H](CC2CCCCC2)NC(=O)[C@H](CCN)NC(=O)[C@@H](NC(=O)[C@H](CCN)NC(=O)[C@@H](NC(=O)CC(CN)Cc2ccccc2)[C@@H](C)O)CCNC(=O)[C@H]([C@@H](C)O)NC(=O)[C@H](CCN)NC(=O)[C@H](CCN)NC1=O (single isomer, unassigned; isomer 1) [Example 66, 4-amino-3-benzylbutanoyl polymyxin [D-cyclohexylalanine]-6 nonapeptide isomer 1] | – | – | – | – | – | – | 0.125 (≈ 0.109 µM) | 0.06 (≈ 0.0524 µM) | 8 (≈ 6.99 µM) | 0.125 (≈ 0.109 µM) | 0.25 (≈ 0.218 µM) | 0.5 (≈ 0.437 µM) | 4 (≈ 3.5 µM) | 0.125 (≈ 0.109 µM) | >64 | 64 (≈ 55.9 µM) | 32 (≈ 28 µM) | 32 (≈ 28 µM) | 64 (≈ 55.9 µM) | MIC P. aeruginosa 068 ([3]; strain 068): 8 µg/mL (≈ 6.99 µM)
CC(C)C[C@@H]1NC(=O)[C@@H](CC2CCCCC2)NC(=O)[C@H](CCN)NC(=O)[C@@H](NC(=O)[C@H](CN)NC(=O)[C@@H](NC(=O)C(CCN)OCc2cccc(Cl)c2)[C@@H](C)O)CCNC(=O)[C@H]([C@@H](C)O)NC(=O)[C@H](CCN)NC(=O)[C@H](CCN)NC1=O (single isomer, unassigned; isomer 1) [Example 82, 4-amino-2-((3-chlorobenzyl)oxy) butanoyl L-Thr-L-Dap-polymyxin [D-cyclohexylalanine-6]heptapeptide. Isomer 1] | 0.125 (≈ 0.106 µM) | 0.03 (≈ 0.0254 µM) | 2 (≈ 1.69 µM) | 0.06 (≈ 0.0508 µM) | 0.125 (≈ 0.106 µM) | 0.125 (≈ 0.106 µM) | – | – | – | – | – | – | – | – | – | – | – | – | – | MIC A. baumanii 053 [1]: 64 µg/mL (≈ 54.2 µM); MIC A. baumanii 056 [1]: 16 µg/mL (≈ 13.5 µM); MIC E. coli 061 [2]: 8 µg/mL (≈ 6.77 µM); MIC E. coli NCTC 9001 [2]: 0.015 µg/mL (≈ 0.0127 µM); MIC P. aeruginosa 068 [3]: 4 µg/mL (≈ 3.39 µM); MIC P. aeruginosa 070 [3]: 8 µg/mL (≈ 6.77 µM); MIC P. aeruginosa ATCC 27853 [3]: 0.125 µg/mL (≈ 0.106 µM); MIC K. pneumoniae 063 [4]: 32 µg/mL (≈ 27.1 µM); MIC K. pneumoniae 065 [4]: 2 µg/mL (≈ 1.69 µM)
CC(C)C[C@@H]1NC(=O)[C@@H](CC2CCCCC2)NC(=O)[C@H](CCN)NC(=O)[C@@H](NC(=O)[C@H](CCN)NC(=O)[C@@H](NC(=O)CC(CN)C2CCCCC2)[C@@H](C)O)CCNC(=O)[C@H]([C@@H](C)O)NC(=O)[C@H](CCN)NC(=O)[C@H](CCN)NC1=O (single isomer, unassigned; isomer 1) [Example 86, 4-amino-3-cyclohexylbutanoyl polymyxin [D-cyclohexylalanine-6]nonapeptide. Isomer 1] | – | – | – | – | – | – | 0.125 (≈ 0.11 µM) | 0.125 (≈ 0.11 µM) | 8 (≈ 7.04 µM) | 0.125 (≈ 0.11 µM) | 0.25 (≈ 0.22 µM) | 0.5 (≈ 0.44 µM) | 8 (≈ 7.04 µM) | 0.5 (≈ 0.44 µM) | >64 | 64 (≈ 56.3 µM) | 32 (≈ 28.2 µM) | 8 (≈ 7.04 µM) | >64 | MIC E. coli NCTC 9001 ([2]; strain NCTC 9001): 0.06 µg/mL (≈ 0.0528 µM)
CC(C)C[C@@H]1NC(=O)[C@@H](CC2CCCCC2)NC(=O)[C@H](CCN)NC(=O)[C@@H](NC(=O)[C@H](CCN)NC(=O)[C@@H](NC(=O)CC(CN)CC2CCCCC2)[C@@H](C)O)CCNC(=O)[C@H]([C@@H](C)O)NC(=O)[C@H](CCN)NC(=O)[C@H](CCN)NC1=O (single isomer, unassigned; isomer 1) [Example 91, 4-amino-3-(cyclohexylmethyl) butanoyl polymyxin [D-cyclohexylalanine-6]nonapeptide. Isomer 1] | – | – | – | – | – | – | 0.25 (≈ 0.217 µM) | 0.125 (≈ 0.109 µM) | 4 (≈ 3.48 µM) | 0.125 (≈ 0.109 µM) | 0.25 (≈ 0.217 µM) | 0.5 (≈ 0.435 µM) | 4 (≈ 3.48 µM) | 0.25 (≈ 0.217 µM) | – | – | – | – | – | –
